Patent US6306853A, “1,4-Dihydropyridine derivatives” (Nikken Chemicals Co., Ltd., priority 1998, dated 2001)
Where “and” joins values, the source holds several entries; their conditions need not be identical. Equal values may be shown once.

Legend:
[1] = tested on: VCR resistant murine leukemia (P388/VCR) cells; assay: In vivo overcoming of resistance in VCR resistant murine leukemia (P388/VCR) bearing mice, etoposide with compound 20 mg/kg; parameters: species or system CDF1 female mice; conditions: for Average days of survival / Rate of prolongation of life T/C: VP-16 3 mg/kg + compound 20 mg/kg
Method: In Vivo Test of Action Suppressing Proliferation of Cancer Cells by Combined Administration of Anti-cancer Drug Etoposide
Effect of Overcoming Resistance to an Anti-cancer Drug for VCR Resistant Murine Leukemia Cell Bearing Mice
(§1) 1.2×10^5 VCR resistant murine leukemia (P388/VCR) cells were transplanted intravenously into groups of 5-6 CDF1 female mice, then the compound of the present invention (20 mg/kg) and Etoposide (VP-16) (3 mg/kg) were administered intravenously once per day for 5 days, after dissolving them in a physiological salt solution containing a small amount of hydrochloric acid. The observation was started from the next day. The number of survival days were found and the life prolonging rate (T/C) with respect to the controls was found. The effect in overcoming resistance to an anti-cancer drug (T/V) was found by the following formula.
(§2) Effect of overcoming resistance to the anti-cancer drug (T/V) %
(§3) =[(Rate of prolongation of life using VP-16 and the present compound (T/C))/(Rate of prolongation of life using VP-16 alone (T/C))]×100

[2] = tested on: VCR resistant murine leukemia (P388/VCR) cells; assay: In vivo overcoming of resistance in VCR resistant murine leukemia (P388/VCR) bearing mice, etoposide with compound 10 mg/kg; parameters: species or system CDF1 female mice; conditions: for Average days of survival / Effect of overcoming resistance T/V / Rate of prolongation of life T/C: VP-16 3 mg/kg + compound 10 mg/kg; for Effect of overcoming resistance T/V: vs VP-16 alone
Method: as §1, §2, §3
In Vivo Test of Action Suppressing Proliferation of Cancer Cells by Combined Administration of Anti-Cancer Drug Etoposide
The Test Example 3 was repeated using 10 mg/kg administration of the present compound and the effects of overcoming resistance to the anti-cancer drug were determined from the average days of survival.

[3] = tested on: thoracic aorta of the rat; assay: Action easing KCl contraction in rat arteries; conditions: rat thoracic aorta ring, 50 mM KCl, compound 10^-6 M; read-out: Inhibitory rate of hyperpotassium contraction at 10^-6 M
Method: Action Easing KCl Contraction in Rat Arteries
The specimen was stabilized for approximately 60 minutes, then a potassium chloride solution was added to the Magnus tube to give a final concentration of 50 mM. The positive control compound or the compound of the present invention was cumulatively added to become 1×10^-6 M when the contraction reaction occurring at that time reached equilibrium. The contraction force was recorded by an FD-pickup (Nihon Koden) via a polygraph (Nihon Koden).

[4] = i.v. once per day for 5 days, vs control
[5] = VP-16 alone 3 mg/kg, reference = 100

SMILES: CCOC(=O)C1=C(c2ccc(-n3c(C)nc4cnccc43)cc2)NC(C)=C(C(=O)OCC#Cc2cccnc2)C1C1CCCCC1 (centres unmarked) [Compound 4, 4-Cyclohexyl-6-methyl-2-[4-(2-methylimidazo[4,5-c]pyridin-1-yl)phenyl]-1,4-dihydropyridin-3,5-dicarboxylate 3-ethylester 5-[3-(3-pyridyl)-2-propynyl]ester]
- Average days of survival ([1]; i.v. once per day for 5 days): 14.8 days
- Rate of prolongation of life T/C [1, 4]: 161%

SMILES: CCOC(=O)C1=C(c2ccc(-n3c(C)nc4cnccc43)cc2)NC(C)=C(C(=O)OCC#Cc2cccnc2)C1C(C)c1ccccc1 (stereo not drawn) [Compound 7, 6-Methyl-4-(α-methylbenzyl)-2-[4-(2-methylimidazo[4,5-c]pyridin-1-yl)phenyl]-1,4-dihydropyridin-3,5-dicarboxylate 3-ethylester 5-[3-(3-pyridyl)-2-propynyl]ester]
- Average days of survival ([1]; i.v. once per day for 5 days): 13.4 days
- Rate of prolongation of life T/C [1, 4]: 146%

SMILES: CCOC(=O)C1=C(c2ccc(-n3c(C)nc4cnccc43)cc2)NC(C)=C(C(=O)OCC#Cc2cccnc2)C1/C=C/c1ccccc1 (centres unmarked) [Compound 10, 6-Methyl-2-[4-(2-methylimidazo[4,5-c]pyridin-1-yl)phenyl]-4-[(E)-2-phenylethenyl]-1,4-dihydropyridin-3,5-dicarboxylate 3-ethylester 5-[3-(3-pyridyl)-2-propynyl]ester]
- Average days of survival ([1]; i.v. once per day for 5 days): 17.0 days
- Rate of prolongation of life T/C [1, 4]: 185%

SMILES: CCOC(=O)C1=C(c2ccc(-n3c(C)nc4cnccc43)cc2)NC(C)=C(C(=O)OCC#Cc2cccnc2)C1CCc1ccccc1Cl (centres unmarked) [Compound 11, 4-[2-(2-Chlorophenyl)ethyl]-6-methyl-2-[4-(2-methylimidazo[4,5-c]pyridin-1-yl)phenyl]-1,4-dihydropyridin-3 ,5-dicarboxylate 3-ethylester 5-[3-(3-pyridyl)-2-propynyl]ester]
- Average days of survival ([1]; i.v. once per day for 5 days): 15.8 days
- Rate of prolongation of life T/C [1, 4]: 155%

SMILES: CCOC(=O)C1=C(c2ccc(-n3c(C)nc4cnccc43)cc2)NC(C)=C(C(=O)OCC#Cc2cccnc2)C1/C=C/c1ccccc1Cl (centres unmarked) [Compound 12, 4-[(E)-2-(2-chlorophenyl)ethenyl]-6-methyl-2-[4-(2-methylimidazo[4,5-c]pyridin-1-yl)phenyl]-1,4-dihydropyridin-3,5-dicarboxylate 3-ethylester 5-[3-(3pyridyl)-2-propynyl]ester]
- Average days of survival ([1]; i.v. once per day for 5 days): 16.8 days
- Rate of prolongation of life T/C [1, 4]: 165%

SMILES: CCOC(=O)C1=C(c2ccc(-n3c(C)nc4cnccc43)cc2)NC(C)=C(C(=O)OCC#Cc2cccnc2)C1CCc1ccccc1OC (centres unmarked) [Compound 13, 4-[2-(2-methoxyphenyl)ethyl]-6-methyl-2-[4-(2-methylimidazo[4,5-c]pyridin-1-yl)phenyl]-1,4-dihydropyridin-3,5-dicarboxylate 3-ethylester 5-[3-(3-pyridyl)-2-propynyly]ester]
- Average days of survival ([1]; i.v. once per day for 5 days): 15.7 days
- Rate of prolongation of life T/C [1, 4]: 154%

SMILES: CCOC(=O)C1=C(c2ccc(-n3c(C)nc4cnccc43)cc2)NC(C)=C(C(=O)OCC#Cc2cnc3ccccc3c2)C1CCc1ccccc1 (centres unmarked) [Compound 18, 6-Methyl-2-[4-(2-methylimidazo[4,5-c]pyridin-1-yl)phenyl]-4-(2-phenylethyl)-1,4-dihydropyridin-3,5-dicarboxylate 3-ethylester 5-[3-(3-quinolyl)-2-propynyl]ester]
- Average days of survival ([1]; i.v. once per day for 5 days): 16.0 days
- Rate of prolongation of life T/C [1, 4]: 157%

SMILES: CCOC(=O)C1=C(c2ccc(-n3c(C)nc4cnccc43)cc2)NC(C)=C(C(=O)OCC#Cc2cnc3ccccc3c2)C1/C=C/c1ccccc1 (centres unmarked) [Compound 19, 6-Methyl-2-[4-(2-methylimidazo[4,5-c]pyridin-1-yl)phenyl]-4-[(E)-2-(2-phenyl)ethenyl]-1,4-dihydropyridin-3,5-dicarboxylate 3-ethylester 5-[(3-quonolyl)-2-propynyl]ester]
- Average days of survival ([1]; i.v. once per day for 5 days): 16.0 days
- Rate of prolongation of life T/C [1, 4]: 157%

SMILES: CCOC(=O)C1=C(c2ccc(-n3c(C)nc4cnccc43)cc2)NC(C)=C(C(=O)OCC#Cc2cncc3ccccc23)C1/C=C/c1ccccc1 (centres unmarked) [Compound 20]
- Average days of survival ([1]; i.v. once per day for 5 days): 14.7 days
- Rate of prolongation of life T/C [1, 4]: 144%

SMILES: CCOC(=O)C1=C(c2ccc(-n3c(C)nc4cnccc43)cc2)NC(C)=C(C(=O)OC(C)C#Cc2cccnc2)C1CCc1ccccc1 (centres unmarked) [Compound 23, 6-Methyl-2-[4-(2-methylimidazo[4,5-c]pyridin-1-yl)phenyl]-4-(2-phenylethyl)-1,4-dihydropyridin-3,5-dicarboxylate 3-ethylester 5-[1-methyl-3-(3-pyridyl)-2-propynyl]ester]
- Average days of survival ([1]; i.v. once per day for 5 days): 15.8 days
- Rate of prolongation of life T/C [1, 4]: 172%
- Average days of survival [2]: 13.0 days
- Effect of overcoming resistance T/V [2]: 123%
- Rate of prolongation of life T/C ([2]; vs control): 125%

SMILES: CCOC(=O)C1=C(c2ccc(-n3c(C)nc4cnccc43)cc2)NC(C)=C(C(=O)OCCC#Cc2cccnc2)C1CCc1ccccc1 (centres unmarked) [Compound 47, 6-Methyl-2-[4-(2-methylimidazo[4,5-c]pyridin-1-yl)phenyl]-4-(2-phenylethyl)-1,4-dihydropyridin-3,5-dicarboxylate 3-ethylester 5-[4-(3-pyridyl)-3-butynyl]ester]
- Average days of survival ([1]; i.v. once per day for 5 days): 15.2 days
- Rate of prolongation of life T/C [1, 4]: 148%

SMILES: CCOC(=O)C1=C(c2ccc(-n3c(C)nc4cnccc43)cc2)NC(C)=C(C(=O)OCC#Cc2cccnc2)C1CC(c1ccccc1)c1ccccc1 (centres unmarked) [Compound 60]
- Average days of survival ([1]; i.v. once per day for 5 days): 16.3 days
- Rate of prolongation of life T/C [1, 4]: 158%

SMILES: CCOC(=O)C1=C(c2ccc(-n3c(C)nc4cnccc43)cc2)NC(C)=C(C(=O)OCC#Cc2cccnc2)C1CC1c2ccccc2C2C(c3ccccc31)C2(F)F (centres unmarked) [Compound 66, 4-(1,1-Difluoro-1,1a,6, 10b-tetrahydrodibenzoa,[a,e]cyclopropa[c]cyclohepten-6-ylmethyl)-6-methyl-2-[4-(2-methylimidazo[4,5-c]pyridin-1-yl)phenyl]-1,4-dihydropyridin-3,5-dicarboxylate 3-ethylester 5-[3-(3-pyridyl)-2-propynyl]ester]
- Average days of survival ([1]; i.v. once per day for 5 days): 14.5 days
- Rate of prolongation of life T/C [1, 4]: 141%

SMILES: CCOC(=O)C1=C(c2ccc(-n3c(C)nc4cnccc43)cc2)NC(C)=C(C(=O)OCC#Cc2cccnc2)C1C=C1c2ccccc2C2C(c3ccccc31)C2(F)F (centres unmarked) [Compound 67, 4-(1,1-Difluoro-1,1a,6,10b-tetrahydrodibenzo[a,e]cyclopropa[c]cyclohepten-6-ylidenemethyl)-6-methyl-2-[4-(2-methylimidazo[4,5-c]pyridin-1-yl)phenyl]-1,4-dihydropyridin-3,5-dicarboxylate 3-ethylester 5-[3-(3-pyridyl)-2-propynyl]ester]
- Average days of survival ([1]; i.v. once per day for 5 days): 14.3 days
- Rate of prolongation of life T/C [1, 4]: 139%

SMILES: CCOC(=O)C1=C(c2ccc(-n3c(C(C)C)nc4cnccc43)cc2)NC(C)=C(C(=O)OCC#Cc2cccnc2)C1CC(c1ccccc1)c1ccccc1 (centres unmarked) [Compound 71, 4-(2,2-Diphenylethyl)-2-[4-(2-isopropylimidazo[4,5-c]pyridin-1-yl)phenyl]-6-methyl-1,4-dihydropyridin-3,5-dicarboxylate 3-ethylester 5-[3-(3-pyridyl)-2-propynyl]ester]
- Average days of survival [2]: 17.4 days
- Effect of overcoming resistance T/V [2]: 164%
- Rate of prolongation of life T/C ([2]; vs control): 167%

SMILES: CCOC(=O)C1=C(c2ccc(-n3c(C)nc4cnccc43)cc2)NC(C)=C(C(=O)OCC#Cc2cccnc2)C1CC(c1ccc(F)cc1)c1ccc(F)cc1 (centres unmarked) [Compound 78]
- Average days of survival [2]: 14.2 days
- Effect of overcoming resistance T/V [2]: 134%
- Rate of prolongation of life T/C ([2]; vs control): 137%

SMILES: COc1cc([C@@H]2c3cc4c(cc3[C@@H](O[C@@H]3O[C@@H]5CO[C@@H](C)O[C@H]5[C@H](O)[C@H]3O)[C@H]3COC(=O)[C@H]23)OCO4)cc(OC)c1O [VP-16, Etoposide, reference compound]
- Average days of survival (VP-16 alone) ([1]; VP-16 alone 3 mg/kg, i.v. once per day for 5 days): 9.5 days and 11.0 days and 10.5 days
- Rate of prolongation of life T/C (VP-16 alone) ([1]; VP-16 alone 3 mg/kg, i.v. once per day for 5 days, vs control): 103% and 108% and 102%
- Effect of overcoming resistance T/V (VP-16 alone) [1, 5]: 100%
- Average days of survival (VP-16 alone) ([2]; VP-16 alone 3 mg/kg): 10.6 days
- Effect of overcoming resistance T/V (VP-16 alone) [2, 5]: 100%
- Rate of prolongation of life T/C (VP-16 alone) ([2]; VP-16 alone 3 mg/kg, vs control): 102%

SMILES: COc1ccc(CCN(C)CCCC(C#N)(c2ccc(OC)c(OC)c2)C(C)C)cc1OC (centres unmarked) [Verapamil, reference compound]
- inhibition at 1 µM [3]: 42.3%
